According to US6756063B2, “Methods and compositions for the treatment of human and animal cancers” (Zoltan Laboratories, LLC, priority 2001, dated 2004):

Tests used:
[1] = tested on: MDA-MB-231, human mammary gland (epithelial) adenocarcinoma, estrogen receptor negative; test: Cell killing in MDA-MB-231; format: cell-based; conditions: for effectiveness of compositions comprising another dithiocarbonyl compared with PDC: same conditions as the PDC compositions
Description: (§1) To determine the effects of the present compositions, cells were grown in the indicated medium in either 12-well plates (to assess morphological changes and measure DNA synthesis); 6-well plates (for determination of apoptosis/necrosis); or 96-well plates (for determination of cellular proliferation by the MTT assay). All media contained 10% fetal bovine serum. In each experiment, the medium was replaced with fresh medium at 2 h. prior to treatment. Treatments were performed with sterile solutions of the compositions (made up either in the respective medium or water) for 1 min.-72 h. In some cases, treatments were done for 1 min., followed by incubation of washed cells for various time periods.
Cells were cultured in Leibovitz's L-15 cell culture medium (Gibco) and 10% fetal bovine serum; the medium was changed 6 h. prior to treatment. […] For DNA synthesis experiments, cells were incubated with [^3H]-thymidine (1 μCi/ml) between 40-50 mins. of treatment; for cell proliferation experiments, cells were trypsinized after treatment, re-plated, and viable cells counted 1 week later.

[2] = tested on: MDA-MB-468, human mammary gland (epithelial) adenocarcinoma, estrogen receptor negative; test: Cell killing in MDA-MB-468; format: cell-based; conditions: in the above experiments
Description: as §1
Cells were cultured in Leibovitz's L-15 medium and 10% fetal bovine serum; the medium was changed 6 h. prior to treatment. […] For DNA synthesis experiments, cells were incubated with [^3H]-thymidine (1 μCi/ml) between 120-130 mins. of treatment; for cell proliferation experiments, cells were trypsinized after treatment, re-plated, and viable cells counted 1 week later.

[3] = tested on: T-47D, human mammary gland (epithelial) ductal carcinoma, estrogen receptor positive; test: Cell killing in T-47D; format: cell-based
Description: as §1
(§2) Cells were cultured in modified RPMI 1640 cell culture medium (see Gibco Catalogue), with 2 mM L-glutamine, 10 mM Hepes, 1 mM sodium pyruvate, 4.5 g/L glucose, 1.5 g/L sodium bicarbonate, 0.2 I.U. bovine insulin/ml, and 10% fetal bovine serum; the medium was changed 6 h. prior to treatment. […] For DNA synthesis experiments, cells were incubated with [^3H]-thymidine (1 μCi/ml) between 120-130 mins. of treatment; for cell proliferation experiments, cells were trypsinized after treatment, replated, and viable cells counted 1 week later.

[4] = tested on: ZR-75-1, human mammary gland (epithelial) ductal carcinoma, ascites, estrogen receptor positive; test: Cell killing in ZR-75-1; format: cell-based
Description: as §1
as §2, with “ZR-75-1, human mammary gland (epithelial) ductal carcinoma, ascites, estrogen receptor positive. Cells” for “Cells”, “1640” for “1640 cell culture”, “medium” for “medium (see Gibco Catalogue),”, “re-plated,” for “replated,”

[5] = tested on: MCF-7, human breast carcinoma cells, estrogen receptor positive; test: Cell killing in MCF-7; format: cell-based; conditions: in the above experiments
Description: as §1
Cells were cultured in Dulbecco's modified Eagle's medium containing 2 mM L-glutamine and 10% fetal calf serum; the medium was changed 2 h prior to treatments. […] For DNA synthesis experiments, cells were incubated with [^3H]-thymidine ([…]) between 120-130 min of treatment; for cell proliferation experiments, cells were trypsinized after treatment, re-plated, and viable cells counted 1 week later.

[6] = tested on: T-47D, 2R-75-1, A431, MDA-MB-231, AN3Ca, CaOV3; test: Proliferation of cancer cell lines; format: cell-based
normal cells = test: Proliferation of normal cells; format: cell-based
BDF1 adult female mice = test: In vivo acute toxicological investigation, intraperitoneal; conditions: alone, 0.5-2 mM in physiological saline, followed 21 days
Description: Specified pathogen free (SPF) hygienic category first generation hybrid BDF1 (C57B1 female×DBA/2 male) adult female mice weighing 22-23 g were used. The animals were kept in macrolon cages at 22-24 C (45-55% humidity), with a lighting regimen of 12/12 h light/dark.
The animals were followed for 21 days and evaluated based on survival and body weight. Seven animals were evaluated for each treatment.

[7] = components at 50 μM PDC, 120 μM Zn, 100 μM EA, 3 mM DMETN, 2 h

Structure (SMILES): S=C(S)OC1CC2CC1C1CCCC21 (stereo not shown) [Composition D609]
- effectiveness of compositions comprising another dithiocarbonyl compared with PDC [1]: as effective as compositions comprising PDC
- effectiveness of compositions comprising another dithiocarbonyl compared with PDC [2]: as effective as those comprising PDC
- effectiveness of compositions comprising another dithiocarbonyl compared with PDC ([3]; in the above experiments): as effective as those comprising PDC
- effectiveness of compositions comprising another dithiocarbonyl compared with PDC ([4]; in the above experiments): as effective as those comprising PDC
- effectiveness of compositions comprising another dithiocarbonyl compared with PDC [5]: as effective as those comprising PDC

Structure (SMILES): CN(C)CCO [DMETN, dimethylethanolamine]
- proliferation of cancer cell lines [6]: inhibits proliferation
- proliferation of normal cells (normal cells): generally increasing proliferation

Structure (SMILES): C=C(CC)C(=O)c1ccc(OCC(=O)O)c(Cl)c1Cl [EA, ethacrynic acid]
- cells killed ([1]; 60 μM EA alone, after 3 h): about 100%
- cells killed ([1]; components at 25 μM PDC, 60 μM Zn, 60 μM EA, 3 mM DMETN, 40 min): about 70%
- cells killed [3, 7]: about 100%
- cells killed [4, 7]: about 100%
- acute toxicity (survival and body weight) (BDF1 adult female mice): not toxic

Structure (SMILES): CCN(CC)C(=S)SSC(=S)N(CC)CC [disulfuram, tetraethylthiuram disulfide]
- effectiveness of compositions comprising another dithiocarbonyl compared with PDC [1]: as effective as compositions comprising PDC
